{"source": "patent US20110086923A1", "about": "“Method to increase oxygen in male and female sexual organs through the topical use of perfluorocarbons” (priority 2009, published 2011)", "test": "Physical properties of F-tert-butylcyclohexane", "format": "physicochemical", "excerpt": "Oxycyte™ is a perfluorocarbon emulsion oxygen carrier. The active ingredient in Oxycyte™, perfluoro(tert-butylcyclohexane) (C10F20, MW-500), also known as F-tert-butylcyclohexane or “FtBu”, is a saturated alicyclic PFC.\nOxycyte™ can be used as a PFC composition in the methods and uses described herein. Physical properties of F-tert-butylcyclohexane are as follows: […]", "data": [{"compound": "FC(F)(F)C(C(F)(F)F)(C(F)(F)F)C1(F)C(F)(F)C(F)(F)C(F)(F)C(F)(F)C1(F)F", "note": "[Perfluoro(tert-butylcyclohexane), perfluoro(tert-butylcyclohexane)]", "values": [{"measurement": "Density", "value": 1.97, "unit": "g/mL"}, {"measurement": "Kinematic Viscosity", "value": 5.378, "unit": "cP"}, {"measurement": "lipophilicity", "value": "non-lipophilic"}, {"measurement": "water solubility", "value": "non-water soluble"}, {"measurement": "Vapor Pressure @ 25° C.", "setting": "25° C.", "value": 3.8, "unit": "mmHg"}, {"measurement": "Vapor Pressure @ 37° C.", "setting": "37° C.", "value": 4.4, "unit": "mmHg"}]}]}
